Experimental data from the supplement of paper PMC10307832.

How the values were obtained:
Assay in all cases: relative viability (nuclei count vs DMSO), 5 days (fraction); higher = more cells survive
Gemcitabine + Bortezomib = compound: Nc1ccn([C@@H]2O[C@H](CO)[C@@H](O)C2(F)F)c(=O)n1 [Gemcitabine] + CC(C)C[C@H](NC(=O)[C@H](Cc1ccccc1)NC(=O)c1cnccn1)B(O)O [Bortezomib] (partner 0.002 µM)
Procedure, shortened: (§1)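 Lung cancer cell lines, seeded in 1536-well plates, were treated the following day by pin tool with a single drug or with five library-drug doses (not always all listed) in √10 steps on top of a fixed anchor-drug dose. Cells were fixed and nuclei stained in one step after 5 days, and nuclei were counted. Relative viability is the nuclei count for treated wells divided by that for vehicle wells, reported as medians of duplicate plates.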

Gemcitabine + Lapatinib = compound: Nc1ccn([C@@H]2O[C@H](CO)[C@@H](O)C2(F)F)c(=O)n1 [Gemcitabine] + CS(=O)(=O)CCNCc1ccc(-c2ccc3ncnc(Nc4ccc(OCc5cccc(F)c5)c(Cl)c4)c3c2)o1 [Lapatinib] (partner 2 µM)
Procedure, shortened: as §1

Gemcitabine + AZD7762 = compound: Nc1ccn([C@@H]2O[C@H](CO)[C@@H](O)C2(F)F)c(=O)n1 [Gemcitabine] + NC(=O)Nc1cc(-c2cccc(F)c2)sc1C(=O)N[C@H]1CCCNC1 [AZD7762] (partner 0.2 µM)
Procedure, shortened: as §1

Gemcitabine + Decitabine = compound: Nc1ccn([C@@H]2O[C@H](CO)[C@@H](O)C2(F)F)c(=O)n1 [Gemcitabine] + Nc1ncn([C@H]2C[C@H](O)[C@@H](CO)O2)c(=O)n1 [Decitabine] (partner 2 µM)
Procedure, shortened: as §1

HCC-827
relative viability (Gemcitabine + Bortezomib; first compound 0.001 µM): 0.964
relative viability (Gemcitabine + Bortezomib; first compound 0.003162 µM): 1.08
relative viability (Gemcitabine + Bortezomib; first compound 0.01 µM): 0.875
relative viability (Gemcitabine + Bortezomib; first compound 0.03162 µM): 0.607
relative viability (Gemcitabine + Bortezomib; first compound 0.1 µM): 0.427
relative viability (Gemcitabine + Lapatinib; first compound 0.001 µM): 0.181
relative viability (Gemcitabine + Lapatinib; first compound 0.003162 µM): 0.177
relative viability (Gemcitabine + Lapatinib; first compound 0.01 µM): 0.18
relative viability (Gemcitabine + Lapatinib; first compound 0.03162 µM): 0.138
relative viability (Gemcitabine + Lapatinib; first compound 0.1 µM): 0.126
relative viability (Gemcitabine + AZD7762; first compound 0.001 µM): 0.128
relative viability (Gemcitabine + AZD7762; first compound 0.003162 µM): 0.12
relative viability (Gemcitabine + AZD7762; first compound 0.01 µM): 0.107
relative viability (Gemcitabine + AZD7762; first compound 0.03162 µM): 0.11
relative viability (Gemcitabine + AZD7762; first compound 0.1 µM): 0.133
relative viability (Gemcitabine + Decitabine; first compound 0.001 µM): 0.333
relative viability (Gemcitabine + Decitabine; first compound 0.003162 µM): 0.226
relative viability (Gemcitabine + Decitabine; first compound 0.01 µM): 0.274
relative viability (Gemcitabine + Decitabine; first compound 0.03162 µM): 0.166
relative viability (Gemcitabine + Decitabine; first compound 0.1 µM): 0.186

HOP-62
relative viability (Gemcitabine + Bortezomib; first compound 0.001 µM): 0.506
relative viability (Gemcitabine + Bortezomib; first compound 0.003162 µM): 0.39
relative viability (Gemcitabine + Bortezomib; first compound 0.01 µM): 0.209
relative viability (Gemcitabine + Bortezomib; first compound 0.03162 µM): 0.0446
relative viability (Gemcitabine + Bortezomib; first compound 0.1 µM): 0.0459
relative viability (Gemcitabine + Lapatinib; first compound 0.001 µM): 0.961
relative viability (Gemcitabine + Lapatinib; first compound 0.003162 µM): 0.863
relative viability (Gemcitabine + Lapatinib; first compound 0.01 µM): 0.301
relative viability (Gemcitabine + Lapatinib; first compound 0.03162 µM): 0.0724
relative viability (Gemcitabine + Lapatinib; first compound 0.1 µM): 0.0756
relative viability (Gemcitabine + AZD7762; first compound 0.001 µM): 0.287
relative viability (Gemcitabine + AZD7762; first compound 0.003162 µM): 0.08
relative viability (Gemcitabine + AZD7762; first compound 0.01 µM): 0.0514
relative viability (Gemcitabine + AZD7762; first compound 0.03162 µM): 0.0757
relative viability (Gemcitabine + AZD7762; first compound 0.1 µM): 0.0617
relative viability (Gemcitabine + Decitabine; first compound 0.001 µM): 0.253
relative viability (Gemcitabine + Decitabine; first compound 0.003162 µM): 0.172
relative viability (Gemcitabine + Decitabine; first compound 0.01 µM): 0.16
relative viability (Gemcitabine + Decitabine; first compound 0.03162 µM): 0.0888
relative viability (Gemcitabine + Decitabine; first compound 0.1 µM): 0.121

LC-2-ad
relative viability (Gemcitabine + Bortezomib; first compound 0.001 µM): 0.998
relative viability (Gemcitabine + Bortezomib; first compound 0.003162 µM): 0.992
relative viability (Gemcitabine + Bortezomib; first compound 0.01 µM): 0.476
relative viability (Gemcitabine + Bortezomib; first compound 0.03162 µM): 0.11
relative viability (Gemcitabine + Bortezomib; first compound 0.1 µM): 0.0847
relative viability (Gemcitabine + Lapatinib; first compound 0.001 µM): 0.978
relative viability (Gemcitabine + Lapatinib; first compound 0.003162 µM): 0.917
relative viability (Gemcitabine + Lapatinib; first compound 0.01 µM): 0.82
relative viability (Gemcitabine + Lapatinib; first compound 0.03162 µM): 0.188
relative viability (Gemcitabine + Lapatinib; first compound 0.1 µM): 0.111
relative viability (Gemcitabine + AZD7762; first compound 0.001 µM): 0.86
relative viability (Gemcitabine + AZD7762; first compound 0.003162 µM): 0.852
relative viability (Gemcitabine + AZD7762; first compound 0.01 µM): 0.25
relative viability (Gemcitabine + AZD7762; first compound 0.03162 µM): 0.185
relative viability (Gemcitabine + AZD7762; first compound 0.1 µM): 0.18
relative viability (Gemcitabine + Decitabine; first compound 0.001 µM): 0.797
relative viability (Gemcitabine + Decitabine; first compound 0.003162 µM): 0.863
relative viability (Gemcitabine + Decitabine; first compound 0.01 µM): 0.729
relative viability (Gemcitabine + Decitabine; first compound 0.03162 µM): 0.658
relative viability (Gemcitabine + Decitabine; first compound 0.1 µM): 0.469

LCLC-97TM1
relative viability (Gemcitabine + Bortezomib; first compound 0.001 µM): 0.752
relative viability (Gemcitabine + Bortezomib; first compound 0.003162 µM): 0.19
relative viability (Gemcitabine + Bortezomib; first compound 0.01 µM): 0.0897
relative viability (Gemcitabine + Bortezomib; first compound 0.03162 µM): 0.0533
relative viability (Gemcitabine + Bortezomib; first compound 0.1 µM): 0.0696
relative viability (Gemcitabine + Lapatinib; first compound 0.001 µM): 0.829
relative viability (Gemcitabine + Lapatinib; first compound 0.003162 µM): 0.683
relative viability (Gemcitabine + Lapatinib; first compound 0.01 µM): 0.178
relative viability (Gemcitabine + Lapatinib; first compound 0.03162 µM): 0.0781
relative viability (Gemcitabine + Lapatinib; first compound 0.1 µM): 0.0994
relative viability (Gemcitabine + AZD7762; first compound 0.001 µM): 0.105
relative viability (Gemcitabine + AZD7762; first compound 0.003162 µM): 0.0523
relative viability (Gemcitabine + AZD7762; first compound 0.01 µM): 0.0434
relative viability (Gemcitabine + AZD7762; first compound 0.03162 µM): 0.0523
relative viability (Gemcitabine + AZD7762; first compound 0.1 µM): 0.0703
relative viability (Gemcitabine + Decitabine; first compound 0.001 µM): 0.235
relative viability (Gemcitabine + Decitabine; first compound 0.003162 µM): 0.206
relative viability (Gemcitabine + Decitabine; first compound 0.01 µM): 0.143
relative viability (Gemcitabine + Decitabine; first compound 0.03162 µM): 0.104
relative viability (Gemcitabine + Decitabine; first compound 0.1 µM): 0.0854

LOU-NH91
relative viability (Gemcitabine + Bortezomib; first compound 0.001 µM): 0.498
relative viability (Gemcitabine + Bortezomib; first compound 0.003162 µM): 0.494
relative viability (Gemcitabine + Bortezomib; first compound 0.01 µM): 0.423
relative viability (Gemcitabine + Bortezomib; first compound 0.03162 µM): 0.323
relative viability (Gemcitabine + Bortezomib; first compound 0.1 µM): 0.313
relative viability (Gemcitabine + Lapatinib; first compound 0.001 µM): 0.733
relative viability (Gemcitabine + Lapatinib; first compound 0.003162 µM): 0.72
relative viability (Gemcitabine + Lapatinib; first compound 0.01 µM): 0.479
relative viability (Gemcitabine + Lapatinib; first compound 0.03162 µM): 0.267
relative viability (Gemcitabine + Lapatinib; first compound 0.1 µM): 0.276
relative viability (Gemcitabine + AZD7762; first compound 0.001 µM): 0.762
relative viability (Gemcitabine + AZD7762; first compound 0.003162 µM): 0.603
relative viability (Gemcitabine + AZD7762; first compound 0.01 µM): 0.395
relative viability (Gemcitabine + AZD7762; first compound 0.03162 µM): 0.288
relative viability (Gemcitabine + AZD7762; first compound 0.1 µM): 0.292
relative viability (Gemcitabine + Decitabine; first compound 0.001 µM): 0.801
relative viability (Gemcitabine + Decitabine; first compound 0.003162 µM): 0.732
relative viability (Gemcitabine + Decitabine; first compound 0.01 µM): 0.756
relative viability (Gemcitabine + Decitabine; first compound 0.03162 µM): 0.562
relative viability (Gemcitabine + Decitabine; first compound 0.1 µM): 0.41

LU99A
relative viability (Gemcitabine + Bortezomib; first compound 0.001 µM): 1.14
relative viability (Gemcitabine + Bortezomib; first compound 0.003162 µM): 1.18
relative viability (Gemcitabine + Bortezomib; first compound 0.01 µM): 1
relative viability (Gemcitabine + Bortezomib; first compound 0.03162 µM): 1.25
relative viability (Gemcitabine + Bortezomib; first compound 0.1 µM): 1.18
relative viability (Gemcitabine + Lapatinib; first compound 0.001 µM): 1.15
relative viability (Gemcitabine + Lapatinib; first compound 0.003162 µM): 1.16
relative viability (Gemcitabine + Lapatinib; first compound 0.01 µM): 0.932
relative viability (Gemcitabine + Lapatinib; first compound 0.03162 µM): 0.974
relative viability (Gemcitabine + Lapatinib; first compound 0.1 µM): 1
relative viability (Gemcitabine + AZD7762; first compound 0.001 µM): 0.437
relative viability (Gemcitabine + AZD7762; first compound 0.003162 µM): 0.41
relative viability (Gemcitabine + AZD7762; first compound 0.01 µM): 0.332
relative viability (Gemcitabine + AZD7762; first compound 0.03162 µM): 0.367
relative viability (Gemcitabine + AZD7762; first compound 0.1 µM): 0.299
relative viability (Gemcitabine + Decitabine; first compound 0.001 µM): 0.789
relative viability (Gemcitabine + Decitabine; first compound 0.003162 µM): 1.03
relative viability (Gemcitabine + Decitabine; first compound 0.01 µM): 0.816
relative viability (Gemcitabine + Decitabine; first compound 0.03162 µM): 0.985
relative viability (Gemcitabine + Decitabine; first compound 0.1 µM): 0.836

LXF-289
relative viability (Gemcitabine + Bortezomib; first compound 0.001 µM): 0.995
relative viability (Gemcitabine + Bortezomib; first compound 0.003162 µM): 1.02
relative viability (Gemcitabine + Bortezomib; first compound 0.01 µM): 0.768
relative viability (Gemcitabine + Bortezomib; first compound 0.03162 µM): 0.178
relative viability (Gemcitabine + Bortezomib; first compound 0.1 µM): 0.0983
relative viability (Gemcitabine + Lapatinib; first compound 0.001 µM): 0.922
relative viability (Gemcitabine + Lapatinib; first compound 0.003162 µM): 0.921
relative viability (Gemcitabine + Lapatinib; first compound 0.01 µM): 0.783
relative viability (Gemcitabine + Lapatinib; first compound 0.03162 µM): 0.282
relative viability (Gemcitabine + Lapatinib; first compound 0.1 µM): 0.141
relative viability (Gemcitabine + AZD7762; first compound 0.001 µM): 1.1
relative viability (Gemcitabine + AZD7762; first compound 0.003162 µM): 0.767
relative viability (Gemcitabine + AZD7762; first compound 0.01 µM): 0.0873
relative viability (Gemcitabine + AZD7762; first compound 0.03162 µM): 0.0797
relative viability (Gemcitabine + AZD7762; first compound 0.1 µM): 0.088
relative viability (Gemcitabine + Decitabine; first compound 0.001 µM): 0.396
relative viability (Gemcitabine + Decitabine; first compound 0.003162 µM): 0.372
relative viability (Gemcitabine + Decitabine; first compound 0.01 µM): 0.321
relative viability (Gemcitabine + Decitabine; first compound 0.03162 µM): 0.222
relative viability (Gemcitabine + Decitabine; first compound 0.1 µM): 0.151

NCI-H23
relative viability (Gemcitabine + Bortezomib; first compound 0.001 µM): 0.848
relative viability (Gemcitabine + Bortezomib; first compound 0.003162 µM): 0.511
relative viability (Gemcitabine + Bortezomib; first compound 0.01 µM): 0.148
relative viability (Gemcitabine + Bortezomib; first compound 0.03162 µM): 0.141
relative viability (Gemcitabine + Bortezomib; first compound 0.1 µM): 0.0999
relative viability (Gemcitabine + Lapatinib; first compound 0.001 µM): 0.794
relative viability (Gemcitabine + Lapatinib; first compound 0.003162 µM): 0.601
relative viability (Gemcitabine + Lapatinib; first compound 0.01 µM): 0.14
relative viability (Gemcitabine + Lapatinib; first compound 0.03162 µM): 0.159
relative viability (Gemcitabine + Lapatinib; first compound 0.1 µM): 0.109
relative viability (Gemcitabine + AZD7762; first compound 0.001 µM): 0.154
relative viability (Gemcitabine + AZD7762; first compound 0.003162 µM): 0.134
relative viability (Gemcitabine + AZD7762; first compound 0.01 µM): 0.0996
relative viability (Gemcitabine + AZD7762; first compound 0.03162 µM): 0.112
relative viability (Gemcitabine + AZD7762; first compound 0.1 µM): 0.118
relative viability (Gemcitabine + Decitabine; first compound 0.001 µM): 0.284
relative viability (Gemcitabine + Decitabine; first compound 0.003162 µM): 0.237
relative viability (Gemcitabine + Decitabine; first compound 0.01 µM): 0.155
relative viability (Gemcitabine + Decitabine; first compound 0.03162 µM): 0.157
relative viability (Gemcitabine + Decitabine; first compound 0.1 µM): 0.136
